Experimental data taken from PubChem BioAssay (NCI).
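Results reflect a 48-hour exposure of cells in 96-well plates to compound at five concentrations. TGI denotes the concentration required for complete inhibition of growth.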

Experiments:
Assay in all cases: DTP human tumour cell line panel, 48 h
SW-620 colon = system: SW-620 colon
M14 melanoma = system: M14 melanoma
UACC-257 melanoma = system: UACC-257 melanoma
786-0 renal = system: 786-0 renal
LOX IMVI melanoma = system: LOX IMVI melanoma
HL-60(TB) leukemia = system: HL-60(TB) leukemia
SK-MEL-2 melanoma = system: SK-MEL-2 melanoma
MALME-3M melanoma = system: MALME-3M melanoma
HCT-15 colon = system: HCT-15 colon
DU-145 prostate = system: DU-145 prostate
BT-549 breast = system: BT-549 breast

## Nc1ncnc2c1ccn2C/C=C/CO
SW-620 colon
  TGI: > 100 µM
M14 melanoma
  TGI: > 100 µM
UACC-257 melanoma
  TGI: > 100 µM
786-0 renal
  TGI: > 100 µM
LOX IMVI melanoma
  TGI: > 100 µM
HL-60(TB) leukemia
  TGI: > 100 µM
SK-MEL-2 melanoma
  TGI: > 100 µM
MALME-3M melanoma
  TGI: > 100 µM
HCT-15 colon
  TGI: > 100 µM
DU-145 prostate
  TGI: > 100 µM
BT-549 breast
  TGI: > 100 µM

## O=C1CSC2(CC(/C=C/c3cccs3)=NN2c2cccc(S(=O)(=O)O)c2)N1c1nc2ccccc2s1 (stereo unspecified)
SW-620 colon
  TGI: > 100 µM
M14 melanoma
  TGI: > 100 µM
UACC-257 melanoma
  TGI: > 100 µM
786-0 renal
  TGI: > 100 µM
LOX IMVI melanoma
  TGI: > 100 µM
HL-60(TB) leukemia
  TGI: > 100 µM
SK-MEL-2 melanoma
  TGI: > 100 µM
MALME-3M melanoma
  TGI: > 100 µM
HCT-15 colon
  TGI: > 100 µM
DU-145 prostate
  TGI: > 100 µM
BT-549 breast
  TGI: > 100 µM

## CC(C)(C)N=C(N)NC#N
SW-620 colon
  TGI: > 100 µM
M14 melanoma
  TGI: > 100 µM
UACC-257 melanoma
  TGI: > 100 µM
786-0 renal
  TGI: > 100 µM
LOX IMVI melanoma
  TGI: > 100 µM
HL-60(TB) leukemia
  TGI: > 100 µM
SK-MEL-2 melanoma
  TGI: > 100 µM
MALME-3M melanoma
  TGI: > 100 µM
HCT-15 colon
  TGI: > 100 µM
DU-145 prostate
  TGI: > 100 µM
BT-549 breast
  TGI: > 100 µM

## Cc1ccc2c(c1)c1ccc3c(c1n2C)C(=O)C=CC3=O
SW-620 colon
  TGI: 2.37 µM
M14 melanoma
  TGI: 4.54 µM
UACC-257 melanoma
  TGI: 7.9 µM
786-0 renal
  TGI: 3.44 µM
LOX IMVI melanoma
  TGI: > 10 µM
HL-60(TB) leukemia
  TGI: 1.69 µM
SK-MEL-2 melanoma
  TGI: > 10 µM
MALME-3M melanoma
  TGI: 3.8 µM
HCT-15 colon
  TGI: 3.92 µM
DU-145 prostate
  TGI: > 10 µM
BT-549 breast
  TGI: 2.83 µM

## CC(C)N1CCN(c2ccc(OCC3COC(Cn4cncn4)(c4ccc(Cl)cc4Cl)O3)cc2)CC1 (stereo unspecified)
SW-620 colon
  TGI: 37.4 µM
M14 melanoma
  TGI: > 20 µM
UACC-257 melanoma
  TGI: 3.77 µM
786-0 renal
  TGI: 14.5 µM
LOX IMVI melanoma
  TGI: 30.2 µM
HL-60(TB) leukemia
  TGI: 33.3 µM
SK-MEL-2 melanoma
  TGI: 30.5 µM
MALME-3M melanoma
  TGI: 22.2 µM
HCT-15 colon
  TGI: 26.5 µM
DU-145 prostate
  TGI: 31.5 µM
BT-549 breast
  TGI: 30 µM

## O=C(CNc1ccc(Cl)cc1Cl)Nn1c(-c2ccccc2)nc2ccccc2c1=O
SW-620 colon
  TGI: 34.4 µM
M14 melanoma
  TGI: 30.8 µM
UACC-257 melanoma
  TGI: 48.6 µM
786-0 renal
  TGI: 35.1 µM
LOX IMVI melanoma
  TGI: 24.1 µM
HL-60(TB) leukemia
  TGI: > 100 µM
MALME-3M melanoma
  TGI: 34.6 µM
HCT-15 colon
  TGI: 33.5 µM
DU-145 prostate
  TGI: 27.5 µM
BT-549 breast
  TGI: 34.5 µM

## COc1ccc(-c2nc3ccccc3c(=S)n2OC(C)=O)cc1
SW-620 colon
  TGI: > 25 µM
M14 melanoma
  TGI: > 25 µM
UACC-257 melanoma
  TGI: > 25 µM
786-0 renal
  TGI: > 25 µM
LOX IMVI melanoma
  TGI: > 25 µM
HL-60(TB) leukemia
  TGI: 17.2 µM
SK-MEL-2 melanoma
  TGI: > 25 µM
MALME-3M melanoma
  TGI: 20.4 µM
HCT-15 colon
  TGI: > 25 µM
DU-145 prostate
  TGI: > 25 µM
BT-549 breast
  TGI: > 25 µM

## CCOC(=O)c1c2cccccc-2nc1Nc1cccc2c(C)ccnc12
SW-620 colon
  TGI: > 10 µM
M14 melanoma
  TGI: > 10 µM
UACC-257 melanoma
  TGI: > 10 µM
786-0 renal
  TGI: > 10 µM
LOX IMVI melanoma
  TGI: > 10 µM
HL-60(TB) leukemia
  TGI: > 10 µM
SK-MEL-2 melanoma
  TGI: > 10 µM
MALME-3M melanoma
  TGI: > 10 µM
HCT-15 colon
  TGI: > 10 µM
DU-145 prostate
  TGI: > 10 µM
BT-549 breast
  TGI: > 10 µM

## C=CCn1c(=O)ccn(/C(=C/C(=O)OCC)C(=O)OCC)c1=O
SW-620 colon
  TGI: 6.57 µM
M14 melanoma
  TGI: 28.1 µM
UACC-257 melanoma
  TGI: 28.7 µM
786-0 renal
  TGI: 11.7 µM
LOX IMVI melanoma
  TGI: 18.1 µM
HL-60(TB) leukemia
  TGI: 3.98 µM
SK-MEL-2 melanoma
  TGI: 34.3 µM
MALME-3M melanoma
  TGI: 25.4 µM
HCT-15 colon
  TGI: 6.52 µM
DU-145 prostate
  TGI: 50.2 µM
BT-549 breast
  TGI: 29.3 µM

## CCOC(=O)C(NC(=O)CC)(N1CCN(c2cc3c(cc2F)c(=O)c(C(=O)O)cn3C2CC2)CC1)C(F)(F)F (stereo unspecified)
SW-620 colon
  TGI: > 100 µM
M14 melanoma
  TGI: > 100 µM
UACC-257 melanoma
  TGI: > 100 µM
786-0 renal
  TGI: > 100 µM
LOX IMVI melanoma
  TGI: > 100 µM
HL-60(TB) leukemia
  TGI: > 100 µM
SK-MEL-2 melanoma
  TGI: > 100 µM
MALME-3M melanoma
  TGI: > 100 µM
HCT-15 colon
  TGI: > 100 µM
DU-145 prostate
  TGI: > 100 µM
BT-549 breast
  TGI: > 100 µM

## COc1ccc(C(=O)NCCN(C)C)c2nc3ccccc3cc12
SW-620 colon
  TGI: 5.06 µM
M14 melanoma
  TGI: 2.99 µM
UACC-257 melanoma
  TGI: 4.02 µM
786-0 renal
  TGI: 12.1 µM
LOX IMVI melanoma
  TGI: 1.74 µM
HL-60(TB) leukemia
  TGI: 2.15 µM
SK-MEL-2 melanoma
  TGI: 7.46 µM
MALME-3M melanoma
  TGI: 2.3 µM
HCT-15 colon
  TGI: 7.22 µM
DU-145 prostate
  TGI: 3.85 µM
BT-549 breast
  TGI: 14.4 µM

## Cc1cc(N(C)C)c2ccccc2[n+]1CCCCCCCCCC[n+]1c(C)cc(N(C)C)c2ccccc21
SW-620 colon
  TGI: 16.5 µM
M14 melanoma
  TGI: 12 µM
UACC-257 melanoma
  TGI: 2.3 µM
786-0 renal
  TGI: 19.5 µM
LOX IMVI melanoma
  TGI: 3.24 µM
HL-60(TB) leukemia
  TGI: 2.18 µM
SK-MEL-2 melanoma
  TGI: 4.98 µM
MALME-3M melanoma
  TGI: > 41.6 µM
HCT-15 colon
  TGI: 14.4 µM
DU-145 prostate
  TGI: 16.2 µM
BT-549 breast
  TGI: 15.4 µM

## C=C(C)[C@H]1C2=CC(C(=O)OC)=C(C[C@H](C(=C)C)[C@@H](O)[C@@H](O)C3=C[C@H]1OC3=O)O2
SW-620 colon
  TGI: > 100 µM
M14 melanoma
  TGI: > 100 µM
UACC-257 melanoma
  TGI: > 100 µM
786-0 renal
  TGI: > 100 µM
LOX IMVI melanoma
  TGI: > 100 µM
HL-60(TB) leukemia
  TGI: > 100 µM
SK-MEL-2 melanoma
  TGI: > 100 µM
MALME-3M melanoma
  TGI: > 100 µM
HCT-15 colon
  TGI: > 100 µM
DU-145 prostate
  TGI: > 100 µM
BT-549 breast
  TGI: > 100 µM

## O=c1c2c(no[n+]2[O-])c2ccccc2n1-c1ccccc1
SW-620 colon
  TGI: 7.54 µM
M14 melanoma
  TGI: 8.25 µM
UACC-257 melanoma
  TGI: 22 µM
786-0 renal
  TGI: 9.97 µM
LOX IMVI melanoma
  TGI: 7.28 µM
HL-60(TB) leukemia
  TGI: 15.3 µM
SK-MEL-2 melanoma
  TGI: 18.8 µM
MALME-3M melanoma
  TGI: 14.5 µM
HCT-15 colon
  TGI: 8.76 µM
DU-145 prostate
  TGI: > 74.2 µM
BT-549 breast
  TGI: 8.56 µM

## CCN(CC)c1ccc(/C=C/c2ccnc3ccccc23)cc1
SW-620 colon
  TGI: > 100 µM
M14 melanoma
  TGI: > 100 µM
UACC-257 melanoma
  TGI: > 100 µM
786-0 renal
  TGI: > 100 µM
LOX IMVI melanoma
  TGI: > 100 µM
HL-60(TB) leukemia
  TGI: > 100 µM
SK-MEL-2 melanoma
  TGI: > 100 µM
MALME-3M melanoma
  TGI: > 100 µM
HCT-15 colon
  TGI: > 100 µM
DU-145 prostate
  TGI: > 100 µM
BT-549 breast
  TGI: > 100 µM

## COc1ccc(/C=N/NC(=O)c2ccc(O)c(CN(C)C)c2)cc1
SW-620 colon
  TGI: > 100 µM
M14 melanoma
  TGI: > 100 µM
UACC-257 melanoma
  TGI: > 100 µM
786-0 renal
  TGI: > 100 µM
LOX IMVI melanoma
  TGI: > 100 µM
HL-60(TB) leukemia
  TGI: > 100 µM
SK-MEL-2 melanoma
  TGI: > 100 µM
MALME-3M melanoma
  TGI: > 100 µM
HCT-15 colon
  TGI: > 100 µM
DU-145 prostate
  TGI: > 100 µM
BT-549 breast
  TGI: > 100 µM

## CC12c3c4ccc(C=O)c3Oc3ccc(C=O)c(c31)Oc1ccc(C=O)c(c12)O4
SW-620 colon
  TGI: > 25 µM
M14 melanoma
  TGI: > 25 µM
UACC-257 melanoma
  TGI: > 25 µM
786-0 renal
  TGI: > 25 µM
LOX IMVI melanoma
  TGI: > 25 µM
HL-60(TB) leukemia
  TGI: > 25 µM
SK-MEL-2 melanoma
  TGI: > 25 µM
MALME-3M melanoma
  TGI: > 25 µM
HCT-15 colon
  TGI: > 25 µM
DU-145 prostate
  TGI: > 25 µM
BT-549 breast
  TGI: > 25 µM
